Measurements as given in patent US5071864A, “Aminoalkyl-substituted 2-aminothiazoles and therapeutic agents containing them” (BASF Aktiengesellschaft, priority 1989, dated 1991).
Structures can show the parent of a compound that is named as a salt.

What follows are molecules tested against D2 -receptor (Rattus norvegicus, UniProt P61169) (assay: Receptor binding test (3H-ADTN, rat striatal membranes)). Details: not given.
Parameters: species or system rats (Sprague Dawley)

D2 -receptor, sequence (P61169 whole entry): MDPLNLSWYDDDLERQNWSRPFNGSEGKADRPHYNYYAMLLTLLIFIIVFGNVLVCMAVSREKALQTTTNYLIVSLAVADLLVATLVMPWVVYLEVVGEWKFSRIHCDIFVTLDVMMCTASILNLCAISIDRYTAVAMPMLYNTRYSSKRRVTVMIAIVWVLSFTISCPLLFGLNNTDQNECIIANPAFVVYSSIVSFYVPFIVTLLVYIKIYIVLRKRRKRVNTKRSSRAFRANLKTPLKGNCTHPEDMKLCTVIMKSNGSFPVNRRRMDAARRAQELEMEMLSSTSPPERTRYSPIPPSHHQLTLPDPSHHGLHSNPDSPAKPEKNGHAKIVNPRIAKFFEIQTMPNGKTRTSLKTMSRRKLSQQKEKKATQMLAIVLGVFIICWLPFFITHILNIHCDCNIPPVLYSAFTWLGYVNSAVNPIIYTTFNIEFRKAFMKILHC

| Molecule | Ki |
| --- | --- |
| Cc1nc(Nc2ccccc2)sc1CCCN1CC=C(c2ccccc2)CC1 [Example 3, 4-methyl-2-phenylamino-5-[3-(4-phenyl-1,2,3,6-tetrahydropyridyl)-propyl]-thiazole dihydrochloride] | 4 nM |
| COc1ccc(-c2nc(N)sc2CCN2CC=C(c3ccccc3)CC2)cc1 [Example 4, 2-Amino-4-(4-methoxyphenyl)-5-[2-(4-phenyl-1,2,3,6-tetrahydropyridyl)-ethyl]-thiazole] | 16 nM |
| Nc1nc(-c2cccs2)c(CCN2CC=C(c3ccccc3)CC2)s1 [Example 5, 2-Amino-5-[2-(4-phenyl-1,2,3,6-tetrahydropyridyl)-ethyl]-4-thien-2-ylthiazole dihydrochloride] | 10 nM |
| Nc1nc(-c2ccccc2)c(CCN2CC=C(c3ccccc3)CC2)s1 [Example 8, 2-Amino-4-phenyl-5-[2-(4-phenyl-1,2,3,6-tetrahydropyridyl)-ethyl]-thiazole tartrate] | 10 nM |
| Cc1nc(N)sc1CCCN1CC=C(c2ccccc2)CC1 [Example 11, 2-Amino-4-methyl-5-[3-(4-phenyl-1,2,3,6-tetrahydropyridyl)-propyl]-thiazoletartrate] | 10 nM |

Same assay, conditions: displacement of 1 nM 3H-ADTN, rat striatum membranes, 0.1 μM SCH 23390, 40 min at 25° C.; read-out: Ki

| Ki | Molecule |
| --- | --- |
| 6 nM | 2-Methylamino-4-methyl-5-[3-(4-phenylpiperazin-1-yl)-propyl]-thiazole dihydrochloride [Example 1] |
| 20 nM | Cc1nc(N)sc1CCCN(C)CCc1ccccc1 [Example 2, 2-Amino-4-methyl-5-[3-(N-methyl-N-phenethylamino)-propyl]-thiazole fumarate] |
| 14 nM | Nc1nc(-c2ccccc2)c(CCCN2CCN(c3ccccc3)CC2)s1 [Example 9, 2-Amino-4-phenyl-5-[3-(4-phenylpiperazin-1-yl)-propyl]-thiazole trihydrochloride] |
| 10 nM | CCCN(CCCc1sc(N)nc1C)CCc1ccccc1 [Example 10, 2-Amino-4-methyl-5-[3-(N-phenethyl-N-propylamino)-propyl]-thiazole fumarate] |
| 10 nM | Nc1nc(-c2ccccc2)c(CCCN2CCN(c3ncccn3)CC2)s1 [Example 13, 2-Amino-4-phenyl-5-[3-(4-pyrimid-2-ylpiperazin-1-yl)-propyl]-thiazole tartrate] |
| 15 nM | Nc1nc(-c2ccccc2)c(CCCN2CCN(c3ccccn3)CC2)s1 [Example 14, 2-Amino-4-phenyl-5-[3-(4-pyrid-2-ylpiperazin-1-yl)-propyl]tartrate] |
| 25 nM | Nc1nc(-c2ccccc2)c(CCCN2CCN(c3ccccc3Cl)CC2)s1 [Example 18, 2-Amino-5-[3-(4-(2-chlorophenyl)-piperazin-1-yl)-propyl]-4-phenylthiazole tartrate] |
| 16 nM | Nc1nc(-c2ccccc2)c(CCN2CCN(c3ccccc3[N+](=O)[O-])CC2)s1 [Example 22, 2-Amino-5-[2-(4-(2-nitrophenyl)-piperazin-1-yl)-ethyl]-4-phenylthiazole tartrate] |
| 20 nM | CCCN(CCCc1sc(N)nc1-c1ccccc1)CCc1ccccc1 [Example 23, 2-Amino-4-phenyl-5-[3-(N-propyl-N-phenethylamino)-propyl]-thiazole dihydrochloride] |
| 4 nM | CCCN(CCCCc1sc(N)nc1C)CCc1ccccc1 [Example 25, 2-Amino-4-methyl-5-[4-(N-propyl-N-phenethylamino)-butyl]-thiazole dihydrochloride] |
